These compounds were tested against Bcl-2 protein (Homo sapiens (Human), UniProt P10415) (assay: Bcl-2 binding TR-FRET (Time-Resolved Fluorescence-Resonance-Energy-Transfer) assay). Conditions: inhibition constant for binding to Bcl-2 protein.
Bcl-2 protein, sequence (P10415 whole entry): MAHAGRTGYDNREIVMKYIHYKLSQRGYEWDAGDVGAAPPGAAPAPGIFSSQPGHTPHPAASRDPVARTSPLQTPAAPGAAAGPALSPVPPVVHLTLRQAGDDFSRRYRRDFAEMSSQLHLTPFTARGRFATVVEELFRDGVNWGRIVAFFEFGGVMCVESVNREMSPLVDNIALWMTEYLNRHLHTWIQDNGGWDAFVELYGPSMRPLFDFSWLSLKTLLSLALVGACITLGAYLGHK
From the text: The smaller the Ki value, the greater is the binding affinity.
In the case of `CC1(C)CCC(CN2CCN(c3ccc(C(=O)NS(=O)(=O)c4ccc(NCC5CN(C6COC6)C5)c([N+](=O)[O-])c4)c(Oc4cnc5[nH]ccc5c4)c3)CC2)=C(c2ccc(Cl)cc2)C1` [Compound 162, 4-(4-{[2-(4-chlorophenyl)-4,4-dimethylcyclohex-1-en-1-yl]methyl}piperazin-1-yl)-N-[(3-nitro-4-{[(1-oxetan-3-ylazetidin-3-yl)methyl]amino}phenyl)sulfonyl]-2-(1H-pyrrolo[2,3-b]pyridin-5-yloxy)benzamide], the Ki is reported as less than 0.01 nM. Compound `CC1(C)CCC(CN2CCN(c3ccc(C(=O)NS(=O)(=O)c4ccc(NCC5CCN(C6COC6)CC5)c([N+](=O)[O-])c4)c(Oc4cnc5[nH]ccc5c4)c3)CC2)=C(c2ccc(Cl)cc2)C1` [Compound 163, 4-(4-{[2-(4-chlorophenyl)-4,4-dimethylcyclohex-1-en-1-yl]methyl}piperazin-1-yl)-N-[(3-nitro-4-{[(1-oxetan-3-ylpiperidin-4-yl)methyl]amino}phenyl)sulfonyl]-2-(1H-pyrrolo[2,3-b]pyridin-5-yloxy)benzamide] has a Ki of less than 0.01 nM. Compound `CC1(C)CCC(CN2CCN(c3ccc(C(=O)NS(=O)(=O)c4ccc(NCC5CCN(C6CC6)CC5)c([N+](=O)[O-])c4)c(Oc4cnc5[nH]ccc5c4)c3)CC2)=C(c2ccc(Cl)cc2)C1` [Compound 164, 4-(4-{[2-(4-chlorophenyl)-4,4-dimethylcyclohex-1-en-1-yl]methyl}piperazin-1-yl)-N-[(4-{[(1-cyclopropylpiperidin-4-yl)methyl]amino}-3-nitrophenyl)sulfonyl]-2-(1H-pyrrolo[2,3-b]pyridin-5-yloxy)benzamide] has a Ki of less than 0.01 nM. In the case of `CC1(C)CCC(CN2CCN(c3ccc(C(=O)NS(=O)(=O)c4ccc(NCC5CN(CCF)CCO5)c([N+](=O)[O-])c4)c(Oc4cnc5[nH]ccc5c4)c3)CC2)=C(c2ccc(Cl)cc2)C1` (stereo not drawn) [Compound 165, 4-(4-{[2-(4-chlorophenyl)-4,4-dimethylcyclohex-1-en-1-yl]methyl}piperazin-1-yl)-N-{[4-({[4-(2-fluoroethyl)morpholin-2-yl]methyl}amino)-3-nitrophenyl]sulfonyl}-2-(1H-pyrrolo[2,3-b]pyridin-5-yloxy)benzamide], the Ki is reported as less than 0.01 nM. `CC1(C)CCC(CN2CCN(c3ccc(C(=O)NS(=O)(=O)c4ccc(NCC5CN(CC(F)F)CCO5)c([N+](=O)[O-])c4)c(Oc4cnc5[nH]ccc5c4)c3)CC2)=C(c2ccc(Cl)cc2)C1` (stereo not drawn) [Compound 166, 4-(4-{[2-(4-chlorophenyl)-4,4-dimethylcyclohex-1-en-1-yl]methyl}piperazin-1-yl)-N-{[4-({[4-(2,2-difluoroethyl)morpholin-2-yl]methyl}amino)-3-nitrophenyl]sulfonyl}-2-(1H-pyrrolo[2,3-b]pyridin-5-yloxy)benzamide] showed a Ki of less than 0.01 nM. With `CC1(C)CCC(CN2CCN(c3ccc(C(=O)NS(=O)(=O)c4ccc(OCC5(F)CCN(C6COC6)CC5)c([N+](=O)[O-])c4)c(Oc4cnc5[nH]ccc5c4)c3)CC2)=C(c2ccc(Cl)cc2)C1` [Compound 167, 4-(4-{[2-(4-chlorophenyl)-4,4-dimethylcyclohex-1-en-1-yl]methyl}piperazin-1-yl)-N-({4-[(4-fluoro-1-oxetan-3-ylpiperidin-4-yl)methoxy]-3-nitrophenyl}sulfonyl)-2-(1H-pyrrolo[2,3-b]pyridin-5-yloxy)benzamide] the Ki was less than 0.01 nM. Work on `CC1(C)CCC(CN2CCN(c3ccc(C(=O)NS(=O)(=O)c4ccc(OC[C@@H]5CC(F)(F)CN5C5COC5)c([N+](=O)[O-])c4)c(Oc4cnc5[nH]ccc5c4)c3)CC2)=C(c2ccc(Cl)cc2)C1` [Compound 168, 4-(4-{[2-(4-chlorophenyl)-4,4-dimethylcyclohex-1-en-1-yl]methyl}piperazin-1-yl)-N-[(4-{[(2S)-4,4-difluoro-1-oxetan-3-ylpyrrolidin-2-yl]methoxy}-3-nitrophenyl)sulfonyl]-2-(1H-pyrrolo[2,3-b]pyridin-5-yloxy)benzamide] yielded a Ki of less than 0.01 nM. With `CC1(C)CCC(CN2CCN(c3ccc(C(=O)NS(=O)(=O)c4ccc(NCC5COCCN5C5CCOC5)c([N+](=O)[O-])c4)c(Oc4cnc5[nH]ccc5c4)c3)CC2)=C(c2ccc(Cl)cc2)C1` (stereo not drawn) [Compound 171, 4-(4-{[2-(4-chlorophenyl)-4,4-dimethylcyclohex-1-en-1-yl]methyl}piperazin-1-yl)-N-[(3-nitro-4-{[(4-tetrahydrofuran-3-ylmorpholin-3-yl)methyl]amino}phenyl)sulfonyl]-2-(1H-pyrrolo[2,3-b]pyridin-5-yloxy)benzamide] the Ki was less than 0.01 nM. `CC1(C)CCC(CN2CCN(c3ccc(C(=O)NS(=O)(=O)c4ccc(NCC5CCN(C(CF)CF)CC5)c([N+](=O)[O-])c4)c(Oc4cnc5[nH]ccc5c4)c3)CC2)=C(c2ccc(Cl)cc2)C1` [Compound 172, 4-(4-{[2-(4-chlorophenyl)-4,4-dimethylcyclohex-1-en-1-yl]methyl}piperazin-1-yl)-N-({4-[({1-[2-fluoro-1-(fluoromethyl)ethyl]piperidin-4-yl}methyl)amino]-3-nitrophenyl}sulfonyl)-2-(1H-pyrrolo[2,3-b]pyridin-5-yloxy)benzamide] was tested, and the Ki was less than 0.01 nM. Work on `CC1(C)CCC(CN2CCN(c3ccc(C(=O)NS(=O)(=O)c4ccc(OCC5(F)CCN(C6CC6)CC5)c([N+](=O)[O-])c4)c(Oc4cnc5[nH]ccc5c4)c3)CC2)=C(c2ccc(Cl)cc2)C1` [Compound 173, 4-(4-{[2-(4-chlorophenyl)-4,4-dimethylcyclohex-1-en-1-yl]methyl}piperazin-1-yl)-N-({4-[(1-cyclopropyl-4-fluoropiperidin-4-yl)methoxy]-3-nitrophenyl}sulfonyl)-2-(1H-pyrrolo[2,3-b]pyridin-5-yloxy)benzamide] yielded a Ki of less than 0.01 nM. `COc1ccc(CNc2ccc(S(=O)(=O)NC(=O)c3ccc(N4CCN(CC5=C(c6ccc(Cl)cc6)CC(C)(C)CC5)CC4)cc3Oc3cnc4[nH]ccc4c3)cc2[N+](=O)[O-])cc1` [Compound 174, 4-(4-{[2-(4-chlorophenyl)-4,4-dimethylcyclohex-1-en-1-yl]methyl}piperazin-1-yl)-N-({4-[(4-methoxybenzyl)amino]-3-nitrophenyl}sulfonyl)-2-(1H-pyrrolo[2,3-b]pyridin-5-yloxy)benzamide] showed a Ki of less than 0.01 nM. `CC1(C)CCC(CN2CCN(c3ccc(C(=O)NS(=O)(=O)c4ccc(N[C@@H]5CCN(CC(F)F)C5)c([N+](=O)[O-])c4)c(Oc4cnc5[nH]ccc5c4)c3)CC2)=C(c2ccc(Cl)cc2)C1` [Compound 180, 4-(4-{[2-(4-chlorophenyl)-4,4-dimethylcyclohex-1-en-1-yl]methyl}piperazin-1-yl)-N-[(4-{[(3R)-1-(2,2-difluoroethyl)pyrrolidin-3-yl]amino}-3-nitrophenyl)sulfonyl]-2-(1H-pyrrolo[2,3-b]pyridin-5-yloxy)benzamide] gave a Ki of less than 0.01 nM. Compound `CC1(C)CCC(CN2CCN(c3ccc(C(=O)NS(=O)(=O)c4ccc(N[C@H]5CCN(CC(F)F)C5)c([N+](=O)[O-])c4)c(Oc4cnc5[nH]ccc5c4)c3)CC2)=C(c2ccc(Cl)cc2)C1` [Compound 182, 4-(4-{[2-(4-chlorophenyl)-4,4-dimethylcyclohex-1-en-1-yl]methyl}piperazin-1-yl)-N-[(4-{[(3S)-1-(2,2-difluoroethyl)pyrrolidin-3-yl]amino}-3-nitrophenyl)sulfonyll]-2-(1H-pyrrolo[2,3-b]pyridin-5-yloxy)benzamide] has a Ki of 0.068 nM. In the case of `CC1(C)CCC(CN2CCN(c3ccc(C(=O)NS(=O)(=O)c4ccc(N[C@@H]5CCN(CCF)C5)c([N+](=O)[O-])c4)c(Oc4cnc5[nH]ccc5c4)c3)CC2)=C(c2ccc(Cl)cc2)C1` [Compound 183, 4-(4-{[2-(4-chlorophenyl)-4,4-dimethylcyclohex-1-en-1-yl]methyl}piperazin-1-yl)-N-[(4-{[(3R)-1-(2-fluoroethyl)pyrrolidin-3-yl]amino}-3-nitrophenyl)sulfonyl]-2-(1H-pyrrolo[2,b]pyridin-5-yloxy)benzamide], the Ki is reported as less than 0.01 nM. `CC1(C)CCC(CN2CCN(c3ccc(C(=O)NS(=O)(=O)c4ccc(OC[C@H]5CCN(C6COC6)C5)c([N+](=O)[O-])c4)c(Oc4cnc5[nH]ccc5c4)c3)CC2)=C(c2ccc(Cl)cc2)C1` [Compound 184, 4-(4-{[2-(4-chlorophenyl)-4,4-dimethylcyclohex-1-en-1-yl]methyl}piperazin-1-yl)-N-[(3-nitro-4-{[(3S)-1-oxetan-3-ylpyrrolidin-3-yl]methoxy}phenyl)sulfonyl]-2-(1H-pyrrolo[2,3-b]pyridin-5-yloxy)benzamide] gave a Ki of less than 0.01 nM. Work on `CC1(C)CCC(CN2CCN(c3ccc(C(=O)NS(=O)(=O)c4ccc(OCC5CCN(C6COC6)CC5)c([N+](=O)[O-])c4)c(Oc4cnc5[nH]ccc5c4)c3)CC2)=C(c2ccc(Cl)cc2)C1` [Compound 191, 4-(4-{[2-(4-chlorophenyl)-4,4-dimethylcyclohex-1-en-1-yl]methyl}piperazin-1-yl)-N-({3-nitro-4-[(1-oxetan-3-ylpiperidin-4-yl)methoxy]phenyl}sulfonyl)-2-(1H-pyrrolo[2,3-b]pyridin-5-yloxy)benzamide] yielded a Ki of less than 0.01 nM. With `CC1(C)CCC(CN2CCN(c3ccc(C(=O)NS(=O)(=O)c4ccc(OCC5(F)CCN(C6CCOCC6)CC5)c([N+](=O)[O-])c4)c(Oc4cnc5[nH]ccc5c4)c3)CC2)=C(c2ccc(Cl)cc2)C1` [Compound 192, 4-(4-{[2-(4-chlorophenyl)-4,4-dimethylcyclohex-1-en-1-yl]methyl}piperazin-1-yl)-N-({4-[(4-fluoro-1-tetrahydro-2H-pyran-4-ylpiperidin-4-yl)methoxy]-3-nitrophenyl}sulfonyl)-2-(1H-pyrrolo[2,3-b]pyridin-5-yloxy)benzamide] the Ki was less than 0.01 nM. `CC1(C)CCC(CN2CCN(c3ccc(C(=O)NS(=O)(=O)c4ccc(OCC5(F)CCN(C6CCOC6)CC5)c([N+](=O)[O-])c4)c(Oc4cnc5[nH]ccc5c4)c3)CC2)=C(c2ccc(Cl)cc2)C1` (stereo not drawn) [Compound 193, 4-(4-{[2-(4-chlorophenyl)-4,4-dimethylcyclohex-1-en-1-yl]methyl}piperazin-1-yl)-N-({4-[(4-fluoro-1-tetrahydrofuran-3-ylpiperidin-4-yl)methoxy]-3-nitrophenyl}sulfonyl)-2-(1H-pyrrolo[2,3-b]pyridin-5-yloxy)benzamide] gave a Ki of less than 0.01 nM.
